The results in this text go back to patent publication US5830697A, “P-glycoprotein mutant resistant to cyclosporin modulation” (The Board of Trustees of the Leland Stanford Junior …, priority 1997, dated 1998).

Read-outs that look alike come from different tables or passages of the source.

Usually IC50 stands for the concentration at which inhibition is half-maximal.

The target in data set [1] is P-gp of DxP cells (Phe335/336 deletion) (Homo sapiens, UniProt P08183, DEL335-335).
Description: (§6) Photoaffinity Labeling with [^25 -I]-iodoarylazidoprazesin and [^3 H]-Azidopine. […] These preparations were incubated at 25° C. for 1 hour in the dark, followed by a 20 min exposure to a 366 nm UV source (UVP, Inc., San Gabriel, Calif.). 50 μl of loading buffer was added and proteins separated on an 8% SDS-polyacrylamide gel, dried, and analyzed by autoradiography.
In data set [2] the test system is Dx5 cells. Put plainly: Rh-123 retention, flow cytometry. The format is cell-based, human. How it is done:
Flow Cytometric Analysis. The flow cytometric analysis of Rh-123 retention and P-gp expression were determined by a dual laser flow cytometer (FACS-II™; Becton Dickinson Corp., Mountain View, Calif.). Double labeling with Rh-123 and the monoclonal antibody UIC2 (Immunotech Coporation, Westbrook, Me.) was performed as previously described. Briefly, following the Rh-123 incubation step, cells were treated with UIC2 (40 μg/ml) and then reacted with either Texas Red or FITC-conjugated goat anti-mouse IgG2a secondary antibody (Caltag, So. San Francisco, Calif,). Cells were centrifuged through a calf serum cushion, resuspended in 200 μl of modified ice-cold Hank's balanced salt solution, and analyzed by flow cytometry.
(In flow cytometry, cells or beads pass a laser one at a time.)

A further data set has as its target P-gp of Dx5 cells (Homo sapiens, UniProt P08183).
Data set [3] has as its system MES-SA/DxP5002 (DxP) cells. Put plainly: Growth inhibition (MTT) assay, with or without MDR modulators. How it is done: Cells and Tissue Culture. […] Monolayer cultures of MES-SA cells and its variants were grown in McCoy's medium (Irvine Scientific, Santa Ana, Calif.) supplemented with 10% newborn calf serum (Gibco, Grand Island, N.Y.), 2 mM L-glutamine, and antibiotics(100 U/ml penicillin, 100 μg/ml streptomycin).
Growth Inhibition Assay. Approximately 8000 cells per well were seeded in 96 well plates and incubated with or without drugs for 72 hr at 37° C. in an atmosphere of 5% CO2. Growth inhibition was evaluated by the MTT colorimetric assay in triplicate or quadruplicate as previously described. The absorbance was measured with a ThermoMax microplate reader (Molecular Devices, Menlo Park, Calif.). […] The doubling times of MES-SA, D×5, and D×P were determined as previously described.
(§1) Reversal of MDR by Modulators. […] The modulation ratio was obtained by comparing IC50 s in the presence and absence of modulators.

A further data set deals with DxP cells. Put plainly: Cellular accumulation of [3H]-labeled drugs. In kind it is cell-based, human. On the procedure: (§2) Cellular Accumulation of [^3 H]-Daunorubicin, [^3 H]-Vinblastine, and [^3 H]Cyclosporine. lntracellular drug accumulation was quantified using radiolabeled drugs in a modified assay. The cells were seeded in 35×10 mm tissue culture dishes (Falcon, Becton Dickinson, Lincoln Park, N.J.), at 1×10^6 cells/dish. After overnight incubation, the growth medium was replaced with serum-free McCoy's 5A medium supplemented with 40 mM Hepes buffer (Sigma Chemicals, St. Louis, Mo.). Radiolabeled drugs were added at the appropriate concentration and incubated for 1 hr at 37° C. The medium was aspirated and cell pellet solubilized in 4% SDS at 65° C. for 1 hr. Ecolite™ scintillation cocktail (INC Biochemicals, Costa Mesa, Calif.) was added and radioactivity determined on an LS-9000 scintillation counter (Beckman Instruments, Brea, Calif.). All values were normalized to protein content.

Data set [4] deals with Dx5 cells. Put plainly: Cellular accumulation of [3H]-labeled drugs. The format is cell-based, human. How it is done: as §2
The subject of a further data set is MES-SA/Dx5 (Dx5) cells. The data set is described as follows: Growth inhibition (MTT) assay, with or without MDR modulators. In kind it is cell-based, human. How it is done: (§3) Cells and Tissue Culture. Details of the development and characterization of the human cell line MES-SA and its MDR variant MES-SA/Dx5 (D×5), which were derived from sarcoma elements of a uterine mixed Mullerian tumor, are described in Harker and Sikic (1985) Cancer Research 45:3810-3815. MES-SA/DxP5002 (DxP) cells were derived from Dx5.05 cells (D×5 cells selected and maintained at a DOX concentration of 0.5 μM) by step-wise selection in the presence of increasing DOX concentrations (from 40 nM up to 0.5 μM) and a constant PSC 833 concentration at 2 μM over a one-year period. Monolayer cultures of MES-SA cells and its variants were grown in McCoy's medium (Irvine Scientific, Santa Ana, Calif.) supplemented with 10% newborn calf serum (Gibco, Grand Island, N.Y.), 2 mM L-glutamine, and antibiotics(100 U/ml penicillin, 100 μg/ml streptomycin).
(§4) Growth Inhibition Assay. Approximately 8000 cells per well were seeded in 96 well plates and incubated with or without drugs for 72 hr at 37° C. in an atmosphere of 5% CO2. Growth inhibition was evaluated by the MTT colorimetric assay in triplicate or quadruplicate as previously described. The absorbance was measured with a ThermoMax microplate reader (Molecular Devices, Menlo Park, Calif.). The IC50 (drug concentration resulting in 50% inhibition of MTT dye formation, compared to controls) was determined directly from semi-logarithmic dose-response curves. The doubling times of MES-SA, D×5, and D×P were determined as previously described.
as §1

A further data set relates to MES-SA cells. The data set is described as above. The format is cell-based, human. To be noted: MES-SA cells. How it is done: as §3, §4, §1
For the next data set, the system named is Dx/PDS cells. The data set is described as follows: MTT assay, DxP subclone. In kind it is cell-based, human. How it is done: as §4, §1
(§5) Clonal Analysis of D×P cells. Subcloning of cells was performed by limiting dilution. Both resistant and revertant clones were analyzed for the MDR phenotype, drug accumulation, and rt-PCR or heteroduplex as described above.
A general note: Tetrazolium assays rely on reduction of a dye to a coloured formazan, in cell work by metabolically active cells.

The subject of the next data set is Dx/PBS cells. Put plainly: MTT assay, DxP subclone. The format is cell-based, human. How it is done: as §4, §1, §5
The next data set deals with Dx/PFS cells. The data set is described as follows: MTT assay, DxP subclone. The format is cell-based, human. On the procedure:
as §4, §1, §5

The test system of a further data set is Dx/PAS cells. The data set is described as follows: MTT assay, DxP subclone. In kind it is cell-based, human. On the procedure:
as §4, §1, §5

A further data set concerns Dx/PCS cells. The data set is described as follows: MTT assay, DxP subclone. In kind it is cell-based, human. On the procedure:
as §4, §1, §5

A further data set relates to Dx/PIS cells. Put plainly: MTT assay, DxP subclone. The format is cell-based, human. How it is done: as §4, §1, §5
The next data set deals with Dx/PMS cells. The data set is described as follows: MTT assay, DxP subclone. In kind it is cell-based, human. How it is done: as §4, §1, §5
The test system of another data set is Dx/PGS cells. The data set is described as follows: MTT assay, DxP subclone. The format is cell-based, human. How it is done: as §4, §1, §5
A further data set has as its system Dx/PJS cells. Put plainly: MTT assay, DxP subclone. The format is cell-based, human. How it is done:
as §4, §1, §5

The test system of a further data set is Dx/PES cells. Put plainly: MTT assay, DxP subclone. In kind it is cell-based, human. How it is done: as §4, §1, §5

Sequence of P-gp of DxP cells (Phe335/336 deletion) (P08183 with tags, fused parts or gaps DEL335-335): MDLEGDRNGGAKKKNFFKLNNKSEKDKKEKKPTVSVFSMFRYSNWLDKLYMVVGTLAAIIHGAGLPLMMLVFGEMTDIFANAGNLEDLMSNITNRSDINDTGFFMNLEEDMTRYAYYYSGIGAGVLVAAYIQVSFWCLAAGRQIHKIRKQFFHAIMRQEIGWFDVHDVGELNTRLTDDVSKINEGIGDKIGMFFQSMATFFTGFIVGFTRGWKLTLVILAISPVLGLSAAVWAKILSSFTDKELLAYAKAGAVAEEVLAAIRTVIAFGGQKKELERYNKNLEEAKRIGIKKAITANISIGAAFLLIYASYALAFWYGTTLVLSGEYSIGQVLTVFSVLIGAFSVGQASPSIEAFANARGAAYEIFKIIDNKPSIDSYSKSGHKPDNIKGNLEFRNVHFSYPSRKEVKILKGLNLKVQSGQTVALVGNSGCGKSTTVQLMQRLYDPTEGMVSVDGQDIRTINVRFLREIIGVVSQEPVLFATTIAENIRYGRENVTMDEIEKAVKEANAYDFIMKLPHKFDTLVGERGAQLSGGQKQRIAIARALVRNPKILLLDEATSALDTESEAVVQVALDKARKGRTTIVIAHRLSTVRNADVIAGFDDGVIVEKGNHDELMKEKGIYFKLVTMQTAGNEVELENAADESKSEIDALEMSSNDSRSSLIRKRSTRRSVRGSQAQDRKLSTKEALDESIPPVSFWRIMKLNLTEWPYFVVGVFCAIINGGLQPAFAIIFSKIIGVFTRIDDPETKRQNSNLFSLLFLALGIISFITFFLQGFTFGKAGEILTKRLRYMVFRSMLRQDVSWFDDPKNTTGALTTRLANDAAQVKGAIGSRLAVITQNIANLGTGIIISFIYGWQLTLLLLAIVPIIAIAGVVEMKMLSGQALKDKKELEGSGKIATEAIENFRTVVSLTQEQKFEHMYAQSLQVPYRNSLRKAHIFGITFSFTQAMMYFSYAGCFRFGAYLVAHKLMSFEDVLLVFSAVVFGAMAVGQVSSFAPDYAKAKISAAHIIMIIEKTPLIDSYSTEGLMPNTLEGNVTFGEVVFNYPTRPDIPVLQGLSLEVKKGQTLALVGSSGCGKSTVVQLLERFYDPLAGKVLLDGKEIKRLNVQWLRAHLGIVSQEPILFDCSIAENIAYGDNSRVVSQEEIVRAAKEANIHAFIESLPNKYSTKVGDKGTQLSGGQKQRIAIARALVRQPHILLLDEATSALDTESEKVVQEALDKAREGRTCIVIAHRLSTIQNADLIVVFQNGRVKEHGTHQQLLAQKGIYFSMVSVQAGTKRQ
Sequence of P-gp of Dx5 cells (P08183 whole entry): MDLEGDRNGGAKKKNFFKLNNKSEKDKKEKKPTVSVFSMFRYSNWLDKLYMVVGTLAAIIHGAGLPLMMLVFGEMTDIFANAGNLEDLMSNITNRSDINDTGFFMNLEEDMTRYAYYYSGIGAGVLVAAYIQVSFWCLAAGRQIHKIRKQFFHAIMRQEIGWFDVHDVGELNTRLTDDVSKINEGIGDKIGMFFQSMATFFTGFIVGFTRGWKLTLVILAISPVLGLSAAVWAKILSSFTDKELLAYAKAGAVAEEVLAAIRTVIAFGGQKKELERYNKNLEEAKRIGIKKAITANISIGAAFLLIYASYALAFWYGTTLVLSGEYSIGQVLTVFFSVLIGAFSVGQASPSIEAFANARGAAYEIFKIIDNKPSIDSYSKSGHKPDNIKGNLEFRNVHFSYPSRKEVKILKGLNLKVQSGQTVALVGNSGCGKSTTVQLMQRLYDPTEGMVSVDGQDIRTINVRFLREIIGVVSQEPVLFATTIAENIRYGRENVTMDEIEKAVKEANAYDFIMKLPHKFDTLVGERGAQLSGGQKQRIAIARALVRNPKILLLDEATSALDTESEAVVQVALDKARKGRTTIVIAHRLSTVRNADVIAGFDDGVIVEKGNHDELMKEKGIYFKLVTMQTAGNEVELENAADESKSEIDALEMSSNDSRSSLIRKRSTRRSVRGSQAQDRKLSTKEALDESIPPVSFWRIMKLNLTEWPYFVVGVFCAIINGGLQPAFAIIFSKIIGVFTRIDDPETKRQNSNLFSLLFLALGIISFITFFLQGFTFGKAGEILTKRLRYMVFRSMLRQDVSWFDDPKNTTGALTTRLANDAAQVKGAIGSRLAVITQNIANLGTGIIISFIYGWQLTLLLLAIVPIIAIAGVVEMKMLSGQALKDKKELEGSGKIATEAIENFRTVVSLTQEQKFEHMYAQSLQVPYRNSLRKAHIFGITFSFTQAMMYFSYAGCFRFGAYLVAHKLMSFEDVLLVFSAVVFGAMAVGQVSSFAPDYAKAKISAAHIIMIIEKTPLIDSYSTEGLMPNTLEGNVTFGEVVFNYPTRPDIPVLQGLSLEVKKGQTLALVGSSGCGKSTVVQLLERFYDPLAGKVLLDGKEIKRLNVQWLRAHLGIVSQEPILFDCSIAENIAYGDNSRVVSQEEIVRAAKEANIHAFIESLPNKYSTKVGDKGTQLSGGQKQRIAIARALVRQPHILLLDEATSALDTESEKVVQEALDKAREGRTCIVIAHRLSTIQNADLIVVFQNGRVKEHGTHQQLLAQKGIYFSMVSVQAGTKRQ
Description for P-gp of Dx5 cells: as §6

For the molecule `C/C=C/C[C@@H](C)C(=O)[C@H]1C(=O)N[C@@H](C(C)C)C(=O)N(C)CC(=O)N(C)[C@@H](CC(C)C)C(=O)N[C@@H](C(C)C)C(=O)N(C)[C@@H](CC(C)C)C(=O)N[C@@H](C)C(=O)N[C@H](C)C(=O)N(C)[C@@H](CC(C)C)C(=O)N(C)[C@@H](CC(C)C)C(=O)N(C)[C@@H](C(C)C)C(=O)N1C` [PSC 833], the “Displacement of [3H]-azidopine photoaffinity labeling” value in [1] is listed as “resistant to the displacement”. Also, the “Effect on [125I]-iodoarylazidoprazosin photoaffinity labeling of P-gp” value in data set [1] (100 μM) is given as “abolished detectable P-gp labeling”; in data set [1] (0.1 and 10 μM), “enhanced photoaffinity binding”; on P-gp of Dx5 cells (100 μM) it was “abolished detectable P-gp labeling”; at P-gp of Dx5 cells (0.1 and 10 μM), “effectively competed”. In addition, the “Effect of modulator on Rh-123 accumulation” value in the data set on Dx5 cells [2] (PSC 833 2 μM) is listed as “completely restored”. The “Resistance of cells to the modulating effects of the modulator (in words)” value in data set [3] (DxP cells, PSC 833 2 μM, cyclosporin 3 μM, verapamil 6 μM) was “almost completely resistant”. Moreover, the “Modulation of decreased drug accumulation by modulator” value is recorded as “not modulated” with DxP cells (DxP cells) and “complete modulation” in the data set on Dx5 cells [4]. The “Modulation of decreased [3H]-cyclosporin accumulation by modulator” value with Dx5 cells [4] (to levels of DxP and MES-SA cells) is “completely modulated”. Besides, in the data set on MES-SA/Dx5 (Dx5) cells (2 μM, sensitivity to DOX, vinblastine, paclitaxel, vincristine and colchicine relative to MES-SA), the “Modulation of MDR by the modulator (in words)” value is “completely restored the sensitivity”.
For the molecule `CC[C@]1(O)C[C@@H]2CN(CCc3c([nH]c4ccccc34)[C@@](C(=O)OC)(c3cc4c(cc3OC)N(C)[C@H]3[C@@](O)(C(=O)OC)[C@H](OC(C)=O)[C@]5(CC)C=CCN6CC[C@]43[C@@H]65)C2)C1` [Vinblastine], the “Displacement of [3H]-azidopine photoaffinity labeling” value in data set [1] was “resistant to the displacement”. Further, the “Effect on [125I]-iodoarylazidoprazosin photoaffinity labeling of P-gp” value in data set [1] (100 μM) is reported as “abolished detectable P-gp labeling”; in data set [1] (0.1 and 10 μM) it was “enhanced photoaffinity binding”; at P-gp of Dx5 cells (100 μM) it was “abolished detectable P-gp labeling”; on P-gp of Dx5 cells (0.1 and 10 μM) it was “effectively competed”. In addition, the Fold resistance in [3] (DxP cells, +2 μM PSC 833) is 12 fold; in [3] (DxP cells, +3 μM cyclosporin A), 7 fold; in data set [3] (DxP cells, +6 μM Verapamil) it was 3 fold; in [3] (DxP cells, no modulator, relative to MES-SA) it was 14 fold; with MES-SA cells (+2 μM PSC 833), 0.3-1 fold; with MES-SA cells (+2 μM PSC 833, listed as vinblastine), 0.5 fold. Besides, the Fold resistance with MES-SA cells (+3 μM cyclosporin A) is recorded as 0.5-1 fold; in the data set with MES-SA cells (+6 μM Verapamil), 0.4-1 fold; in the data set on MES-SA cells (no modulator, 72 hr MTT) it was 1 fold; in the data set with MES-SA/Dx5 (Dx5) cells (+2 μM PSC 833), 1 fold; with MES-SA/Dx5 (Dx5) cells (+3 μM cyclosporin A), 6 fold; in the data set on MES-SA/Dx5 (Dx5) cells (+6 μM Verapamil) it was 4 fold. Moreover, in the data set with MES-SA/Dx5 (Dx5) cells (no modulator, relative to MES-SA), the “Fold resistance” value is 243 fold. Besides, the “Dx5/DxP, fold of resistance difference in DxP cells compared with parental Dx5 cells” value in [3] (DxP vs Dx5) is 17 fold. Further, the IC50 in the data set with MES-SA cells (Homo sapiens, 72 hr MTT, read-out: IC50 of drug-sensitive MES-SA cells (values in parenthesis)) came to 4 nM. Also, the “fold resistance relative to MES-SA” value with Dx/PDS cells (+ PSC) is 6 fold; in the data set with Dx/PDS cells (no modulator), 20 fold; with Dx/PBS cells (+ PSC), 1 fold; in the data set on Dx/PBS cells (no modulator) it was 3 fold; with Dx/PFS cells (+ PSC), 8 fold; in the data set on Dx/PFS cells (no modulator) it was 21 fold. Also, the “fold resistance relative to MES-SA” value is 5 fold in the data set on Dx/PAS cells (+ PSC); 15 fold in the data set on Dx/PAS cells (no modulator); 3 fold with Dx/PCS cells (+ PSC); 8 fold in the data set with Dx/PCS cells (no modulator); 1 fold in the data set on Dx/PIS cells (+ PSC); 2 fold in the data set on Dx/PIS cells (no modulator). Moreover, the “fold resistance relative to MES-SA” value with Dx/PMS cells (+ PSC) is 2 fold; in the data set on Dx/PMS cells (no modulator), 5 fold; in the data set with Dx/PGS cells (+ PSC), 1 fold; in the data set on Dx/PGS cells (no modulator), 2 fold; in the data set with Dx/PJS cells (+ PSC), 10 fold; with Dx/PJS cells (no modulator), 19 fold. Besides, the entries for the “fold resistance relative to MES-SA” value in the data set on Dx/PES cells (+ PSC) and with Dx/PES cells (no modulator) were 1 fold and 3 fold, respectively.
In the case of Rhodamine-123 [Rh-123], the “Cellular accumulation of Rh-123” value in the data set on Dx5 cells [2] is recorded as “markedly decreased”.
For the molecule [^3 H]-vinblastine, in the data set with DxP cells ([3H]-labeled drug, 1 hr), the “Intracellular accumulation in DxP relative to Dx5 cells” value is “approximately 3 fold”.
